Results reported in US11491161B2, “Methods and compositions for treatment of pulmonary hypertension and other lung disorders” (Respira Therapeutics, Inc., priority 2016, dated 2022).
Structures can show the parent of a compound that is named as a salt.

Legend:
[1] = particle size distribution of micronized drug substance by laser diffraction; format: physicochemical; conditions: hydrochloride trihydrate
Excerpt: The coarse drug substance as received was forced into the milling chamber by a compressed air stream, through a Venturi tube with a higher pressure (P_vent) and metered into the mill at the desired rate (F-feed). Nitrogen was used as grinding gas and adjusted to the desired pressure (P_grind) to mill the drug particles. The micronized material was characterized for process yield gravimetrically, particle size distribution (PSD) by laser diffraction (Malvern Masersizer) and moisture content by Karl Fischer (KF) analysis. A finer micronized drug substance PSD as evidenced with smaller volume weighted median diameter (Dv50=1.8 μm) and linear interpolated size of the 90th percentile (Dv90=4.5 μm) was obtained using higher Venturi (P_Vent=7.5 bar) and grinding pressures (P_Grind=6 bar) as compared with a batch with a slightly coarser PSD of […] when using the jet mill operated at lower pressures (ca. P_Vent=5.5 bar and P_Grind=4.5 bar) (Table 1).

[2] = octanol-water partition coefficient; cited from earlier work
[3] = system: plasma proteins; conditions: cited from earlier work
[4] = in vivo; cited from earlier work
[5] = target: PDE5 enzyme (Homo sapiens, UniProt O76074); conditions: cited from earlier work
[6] = in vivo; cited from earlier work; remark: listed apart in the source
[7] = inhaled, following pulmonary administration; peak at first time-point tested; cited from earlier work
[8] = system: human patients with PAH; conditions: 5 mg orally twice per day (b.i.d.); cited from earlier work

Structure (SMILES) | log P [2] | protein binding in the systemic circuit [3] | half-life at the catalytic site on the PDE enzyme [5] | other results
CCCc1nc(C)c2c(=O)[nH]c(-c3cc(S(=O)(=O)N4CCN(CC)CC4)ccc3OCC)nn12 [Batch 1, vardenafil hydrochloride trihydrate] |  |  |  | PSD by Laser diffraction Dv10 [1]: 0.5 μm; PSD by Laser diffraction Dv50 [1]: 1.8 μm; PSD by Laser diffraction Dv90 [1]: 4.5 μm; PSD by Laser diffraction Span [1]: 2.2
CCCc1nc(C)c2c(=O)[nH]c(-c3cc(S(=O)(=O)N4CCN(CC)CC4)ccc3OCC)nn12 [Batch 2, vardenafil hydrochloride trihydrate] |  |  |  | PSD by Laser diffraction Dv10 [1]: 0.7 μm; PSD by Laser diffraction Dv50 [1]: 2.9 μm; PSD by Laser diffraction Dv90 [1]: 5.5 μm; PSD by Laser diffraction Span [1]: 1.7
COc1ccc(CN=c2[nH]c(N3CCC[C@H]3CO)ncc2C(=O)NCc2ncccn2)cc1Cl [avanafil, (S)-4-[(3-chloro-4-methoxybenzyl)amino]-2-[2-(hydroxymethyl)-1-pyrrolidinyl]-N-(2-pyrimidinylmethyl)-5-pyrimidinecarboxamide] | 2.6 | 99% |  | 
COc1ccccc1Oc1c(NS(=O)(=O)c2ccc(C(C)(C)C)cc2)nc(-c2ncccn2)nc1OCCO [bosentan] | 3.7 | 98% |  | 
CCCCC[C@H](O)/C=C/[C@@H]1[C@H]2C/C(=C/CCCC(=O)O)O[C@H]2C[C@H]1O [epoprostenol, (5Z,9α,11α,13E,15S)-6,9-epoxy-11,15-dihydroxyprosta-5,13-dien-1-oic acid] | 2.9 |  |  | 
CC#CCC(C)[C@H](O)/C=C/[C@@H]1[C@H]2C/C(=C/CCCC(=O)O)C[C@H]2C[C@H]1O (stereo partly drawn) [iloprost, (E)-(3aS, 4R, 5R, 6aS)-hexahydro-5-hydroxy-4-[(E)-(3S,4RS)-3-hydroxy-4-methyl-1-octen-6-ynyl]-Δ^2(1H),Δ-pentalenevaleric acid] | 4.8 |  |  | duration of action [4]: about 30 min
CCCc1nn(C)c2c(=O)[nH]c(-c3cc(S(=O)(=O)N4CCN(C)CC4)ccc3OCC)nc12 [sildenafil, 1-[[3-(6,7-dihydro-1-methyl-7-oxo-3-propyl-1H-pyrazolo[4,3-d]pyrimidin-5-yl)-4-ethoxyphenyl]sulfonyl]-4-methylpiperazine] |  | 96% | 3 min | 
CN1CC(=O)N2[C@H](c3ccc4c(c3)OCO4)c3[nH]c4ccccc4c3C[C@@H]2C1=O [tadalafil, (6R,12aR)-2,3,6,7,12,12a-hexahydro-2-methyl-6-(1,3-benzodioxol-5-yl)-pyrazino[1′,2′:1,6]pyrido[3,4-b]indole-1,4-dione] |  | 94% | 7 min | 
CCCCC[C@H](O)CC[C@@H]1[C@H]2Cc3cccc(OCC(=O)O)c3C[C@H]2C[C@H]1O [treprostinil, (1R,2R,3aS,9aS)-[[2,3,3a,4,9,9a-hexahydro-2-hydroxy-1-[(3S)-3-hydroxyoctyl]-1H-benz[f]inden-5-yl]oxy]acetic acid] | 4.1 |  |  | oral bioavailability [6]: 18%
CCCc1nc(C)c2c(=O)nc(-c3cc(S(=O)(=O)N4CCN(CC)CC4)ccc3OCC)[nH]n12 [vardenafil, 1-[[3-(1,4-dihydro-5-methyl-4-oxo-7-propylimidazo[5,1-f][1,2,4]triazin-2-yl)-4-ethoxyphenyl]sulfonyl]-4-ethyl-piperazine] |  | 93-95% | about 2 hr | tmax [7]: ≤ 2 min; safety and efficacy in PAH [8]: safe and effective
